Data taken from patent publication US6229055A, “Synthesis of fluorinated xanthene derivatives” (Molecular Probes, Inc., priority 2000, dated 2001).
Where a name gives a salt, the structure may show the parent alone.

Experiments:
[1] = target: Escherichia coli β-galactosidase (Escherichia coli, UniProt P00722); assay: Labeling β-galactosidase with a fluorinated fluorescein diacetate; details: 3 mg enzyme in PBS pH 7.5, 13.6 μL of 1 mg/mL dye, 1 hour; estimated with ε=85,600 cm^-1 M^-1 at 515 nm
Protocol: Escherichia coli β-galactosidase (3 mg) in 150 μL phosphate-buffered saline pH 7.5 is treated with 13.6 μL of a 1 mg/mL stock solution of 4,5,6,7-tetrafluorofluorescein diacetate (Compound 25) in DMSO. After 1 hour the pH is raised to 10 with Na2 CO3 for 2 hours to remove the acetates. Unreacted dye is removed on a spin column. The degree of substitution is estimated at 8.6 using κ=85,600 cm^-1 M^-1 at 515 nm.

[2] = test system: human lymphoid B-cell culture; assay: Cell labeling with fluorinated fluorescein diacetates, flow cytometry; format: cell-based; details: 1 μM, 37° C., 30 minutes, washed, fixed; compared with FDA after two hours (FIG. 5)
Protocol: Cells from a human lymphoid B-cell culture in RPMI 1640 medium are treated with 1 μM Compound 25 (4,5,6,7-TFFDA), Compound 26 (2',4,5,6,7,7'-HFFDA), or fluorescein diacetate (FDA) at 37° C. for 30 minutes. Following centrifugation and washing in PBS, the pellets are resuspended in RPMI 1640 medium for 15 min, recentrifuged and washed in PBS, fixed with 3.7% formaldehyde in PBS and analyzed by flow cytometry using 488 nm excitation. […] Alternatively, the stained and washed cells are viewed or analyzed without fixation.

[3] = test system: ATP-dependent dye efflux mechanisms in lymphoid-B cell lines; assay: Dye efflux from labeled cells with and without verapamil or probenecid, flow cytometry; format: cell-based
Protocol: Identical batches of lymphoid-B cell lines cells are separately incubated with […] solutions of 4,5,6,7-tetrafluorofluorescein diacetate (Compound 25), 2',7'-dichloro4,5,6,7-tetrafluorofluorescein diacetate (Compound 28), 2',4,5,6,7,7'-hexafluorofluorescein diacetate ([…]) and 2',4',5',7'-tetrafluorofluorescein diacetate. To one set of each cells is added 100 μM verapamil and to another 1 mM probenecid, both of which are known to block ATP-dependent dye efflux mechanisms, as found in multidrug resistant of cells. Without washing, the cells are analyzed for brightness by flow cytometry using 488-nm excitation.

[4] = Spectral properties of selected fluorinated fluoresceins and rhodols; format: physicochemical
[5] = Photodecomposition on illumination in fluorometer; format: physicochemical; details: % of decreased fluorescence intensity after 33 minutes of illumination in fluorometer at wavelength of maximum excitation
Protocol: *% of decreased fluorescence intensity after 33 minutes of illumination in
fluorometer at wavelength of maximum excitation

[6] = pH titration of fluorophores (pKa); details: Table 1
Protocol: The dye of interest is first dissolved in a series of buffers that have each been calibrated using a pH meter. Acetate buffers are typically used in the range of pH 46, and phosphate buffers in the pH range 68. Absorption measurements are made using solutions that are approximately 10 1M in concentration, and fluorescence measurements are made using solutions that are approximately 1 μM in concentration. The absorption or emission data is then plotted versus pH to determine pKa values.

Solubility in water = format: physicochemical
Source text: (§1) In another substrate embodiment, the dye compounds are fluorinated dyes for which R^11 is H, that are substrates for oxidative enzymes and other reactive oxidizing agents, particularly for peroxidase enzymes. […] Unlike their non-fluorinated analogs, fluorinated dihydrofluorescein and dihydrorhodol, are stable in aqueous solutions without the use of blocking groups on the hydroxyl or amine functions that typically reduce aqueous solubility. For example, Compound 84 (4,5,6,7-tetrafluorodihydrofluorescein, Example 85) is soluble in water to at least 2 mM, while existing diacetate fluorogenic peroxidase substrates are typically soluble only in the single-digit μM concentration range.

[7] = Stability toward hydrogen peroxide without peroxidase; format: physicochemical; details: absence of horseradish peroxidase, 1 mM substrate, OPD buffer pH 5.5
Source text: as §1
A 2 mM solution (0.5 mL) of TFDHF is prepared in water. OPD buffer (0.5M Phosphate-citrate buffer) without hydrogen peroxide (pH 5.5, 0.5 mL) is added, resulting in a 1 mM concentration of substrate. Minor background fluorescence, indicating the presence of some contaminating oxidized dye, serves to provide a fluorescence signal at time 0. […] After incubation at room temperature in darkness for 25 minutes, the reaction solution is diluted 1:20 into potassium phosphate buffer at pH 8, and fluorescence emission spectra are recorded.

[8] = target: T1, Horseradish Peroxidase (HRP) (Armoracia rusticana, UniProt P00433); assay: Detection of horseradish peroxidase activity in vitro; format: biochemical; details: 1 mM substrate, OPD buffer with hydrogen peroxide, HRP 1 μL, 10^-4 Units
T1 sequence (P00433 31-353): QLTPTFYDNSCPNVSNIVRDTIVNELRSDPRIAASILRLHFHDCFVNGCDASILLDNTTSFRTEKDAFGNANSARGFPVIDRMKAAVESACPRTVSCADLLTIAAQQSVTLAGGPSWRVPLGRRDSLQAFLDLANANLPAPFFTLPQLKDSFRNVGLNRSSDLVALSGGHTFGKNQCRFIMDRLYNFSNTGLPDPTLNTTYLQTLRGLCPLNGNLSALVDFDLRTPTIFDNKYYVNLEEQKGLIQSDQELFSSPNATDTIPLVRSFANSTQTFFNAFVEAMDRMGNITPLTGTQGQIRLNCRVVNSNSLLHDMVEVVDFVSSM
Protocol: A 2 mM solution (0.5 mL) of TFDHF is prepared in water. […] Minor background fluorescence, indicating the presence of some contaminating oxidized dye, serves to provide a fluorescence signal at time 0. […] After incubation at room temperature in darkness for 25 minutes, the reaction solution is diluted 1:20 into potassium phosphate buffer at pH 8, and fluorescence emission spectra are recorded.

[9] = target: T2, acid β-galactosidase from bovine testes (Bos taurus, UniProt Q58D55); assay: Detection of acid β-galactosidase activity; format: biochemical; details: 50 μM substrate, 4.6 nM enzyme, pH 4.5, excitation 490 nm, emission 512 nm
T2 construct: from tissue; host or cells: bovine testes
T2 sequence (Q58D55 28-653): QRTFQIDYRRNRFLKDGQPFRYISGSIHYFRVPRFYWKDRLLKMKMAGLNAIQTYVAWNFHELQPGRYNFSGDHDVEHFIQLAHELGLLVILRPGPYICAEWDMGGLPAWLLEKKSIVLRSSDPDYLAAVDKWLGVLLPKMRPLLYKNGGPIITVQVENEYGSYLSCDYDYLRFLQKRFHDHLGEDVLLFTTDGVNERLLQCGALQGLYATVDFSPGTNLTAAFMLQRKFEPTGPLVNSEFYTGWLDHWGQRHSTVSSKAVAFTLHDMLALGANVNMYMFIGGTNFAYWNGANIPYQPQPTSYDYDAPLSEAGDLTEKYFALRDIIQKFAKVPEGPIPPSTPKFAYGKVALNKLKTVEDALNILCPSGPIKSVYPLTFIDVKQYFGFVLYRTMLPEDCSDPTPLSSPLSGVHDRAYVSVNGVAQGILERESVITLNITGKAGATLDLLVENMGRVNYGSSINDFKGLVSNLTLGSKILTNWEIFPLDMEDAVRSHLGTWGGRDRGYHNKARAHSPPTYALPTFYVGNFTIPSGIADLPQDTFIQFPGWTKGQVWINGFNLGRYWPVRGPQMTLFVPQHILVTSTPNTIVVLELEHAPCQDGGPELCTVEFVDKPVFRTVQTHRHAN
Protocol: The fluorescence resulting from the action of acid β-galactosidase from bovine testes on fluorescein digalactoside (FDG) and DFFDG is compared. The fluorescence increase at 512 nm when excited at 490 nm is measured versus time for 50 μM substrate with 4.6 nM enzyme in assay buffer (200 mM sodium phosphate +75 mM citric acid, pH 4.5). The initial rate of fluorescence production from DFFDG is 3.0 times that obtained using FDG.

[10] = target: prostatic acid phosphatase (Homo sapiens, UniProt P15309); assay: Detection of acid phosphatase activity; format: biochemical; details: 10 μM substrate, 0.1 units enzyme, pH 5, excitation 490 nm, emission 515 nm
Chain of prostatic acid phosphatase (P15309 33-386): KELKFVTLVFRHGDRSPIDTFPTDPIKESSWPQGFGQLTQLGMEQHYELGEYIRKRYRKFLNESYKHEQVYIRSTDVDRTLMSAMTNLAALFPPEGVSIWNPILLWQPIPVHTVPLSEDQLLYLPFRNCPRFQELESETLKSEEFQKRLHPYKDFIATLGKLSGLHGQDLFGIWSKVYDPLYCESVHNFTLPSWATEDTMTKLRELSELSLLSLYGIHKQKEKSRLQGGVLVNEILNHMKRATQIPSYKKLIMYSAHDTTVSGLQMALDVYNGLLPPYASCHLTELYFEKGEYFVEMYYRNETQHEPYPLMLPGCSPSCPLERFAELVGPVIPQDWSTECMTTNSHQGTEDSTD
Protocol: The rate of fluorescent product generation is measured by exciting a solution of 10 μM DFFDP or fluorescein diphosphate (FDP) at 490 nm while monitoring the emission at 515 nm in a fluorometer in the presence of 0.1 units of prostatic acid phosphatase at pH 5. Under these conditions, acid phosphatase produces about a 6.5 times greater change in signal using DFFP than FDP.

[11] = Ca2+ binding affinity of BAPTA conjugate (Calcium Calibration Buffer Kit II)
Protocol: The fluorescence response and dissociation constant of the fluorescent BAPTA conjugates are determined using the Calcium Calibration Buffer Kit II (Molecular Probes, Inc.; Eugene Oreg.), which is based on a method described by Tsien et al. METH. ENZYM. 172, 230 (1989). For example, 1 mg of Compound 103 is dissolved in deionized water and 5 μL is diluted into 3 mL of each of two buffers, which are cross diluted to arrive at a series of Ca^2+ concentrations between zero and 35 μM. Emission spectra of the dye solutions are scanned between dilutions to generate a family of curves. Each of these curves has maximal fluorescence emission at approximately 530 nm with an increase in fluorescence emission intensity with increasing Ca^2+ concentration. This intensity change is plotted against the concentration of free Ca^2+ to give a value for the dissociation constant of the indicator. […] The calculated dissociation constant at 20° C. is 169 nM.

[12] = Fluorescence response of heavy metal ion indicator; format: binding; details: 1 micromolar compound, 5 micromolar Cu(I), 5 mM MOPS buffer pH 7.2
Protocol: The tetramethyl ester intermediate is then dissolved in 15 mL 1,4-dioxane and concentrated ammonium hydroxide (0.8 mL) is added in one portion. The reaction mixture is centrifuged and the orange pellet is dissolved in 5 mL pure water, then applied to a column of lipophilic SEPHADEX […] resin and eluted with pure water. Pure column fractions are combined, frozen and lyophilized to give phenanthroline conjugate, dipotassium salt (Compound 106) as an orange powder. κ=54,479 cm^-1 M^-1 in 10 mM EGTA, 100 mM KCl, 10 mM MOPS buffer at pH 7.20.

Chain of Escherichia coli β-galactosidase (P00722 2-1024): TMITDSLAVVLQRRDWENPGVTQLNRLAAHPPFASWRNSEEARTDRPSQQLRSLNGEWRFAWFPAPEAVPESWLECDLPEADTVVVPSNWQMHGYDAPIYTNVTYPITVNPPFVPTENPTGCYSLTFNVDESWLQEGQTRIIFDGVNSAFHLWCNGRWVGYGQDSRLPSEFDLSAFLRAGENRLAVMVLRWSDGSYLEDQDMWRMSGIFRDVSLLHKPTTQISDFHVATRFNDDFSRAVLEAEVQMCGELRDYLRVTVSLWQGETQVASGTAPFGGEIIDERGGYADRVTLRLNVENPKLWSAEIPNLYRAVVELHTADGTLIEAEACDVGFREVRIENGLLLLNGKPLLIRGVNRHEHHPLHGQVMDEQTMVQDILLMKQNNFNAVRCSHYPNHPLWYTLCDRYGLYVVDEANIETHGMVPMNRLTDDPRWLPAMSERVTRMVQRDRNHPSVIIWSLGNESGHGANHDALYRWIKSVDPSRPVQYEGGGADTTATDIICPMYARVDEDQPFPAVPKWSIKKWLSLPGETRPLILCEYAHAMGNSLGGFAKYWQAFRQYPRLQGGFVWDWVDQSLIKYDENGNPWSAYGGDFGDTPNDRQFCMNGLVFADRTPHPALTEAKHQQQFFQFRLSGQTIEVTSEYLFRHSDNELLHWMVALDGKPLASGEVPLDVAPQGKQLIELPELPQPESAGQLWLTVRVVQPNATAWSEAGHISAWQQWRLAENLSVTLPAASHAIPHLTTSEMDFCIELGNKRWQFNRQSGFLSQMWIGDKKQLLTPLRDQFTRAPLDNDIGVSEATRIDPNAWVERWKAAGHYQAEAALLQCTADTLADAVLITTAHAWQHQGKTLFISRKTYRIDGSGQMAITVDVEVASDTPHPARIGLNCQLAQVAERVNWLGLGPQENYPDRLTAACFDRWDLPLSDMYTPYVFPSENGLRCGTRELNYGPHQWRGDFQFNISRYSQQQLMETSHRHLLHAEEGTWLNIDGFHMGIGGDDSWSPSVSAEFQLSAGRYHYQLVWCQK

CC(=O)Oc1ccc2c(c1)Oc1cc(OC(C)=O)ccc1C21OC(=O)c2c(F)c(F)c(F)c(F)c21 [Compound 25, 4,5,6,7-tetrafluorofluorescein Diacetate]
protein labeling (degree of substitution) [1]: 8.6 | fluorescence of stained cells [2]: significantly higher fluorescence | Mean Fluorescence intensity of labeled cells ([3]; 100 μM verapamil): 1892 | Mean Fluorescence intensity of labeled cells ([3]; 1 mM Probenecid): 2521 | Mean Fluorescence intensity of labeled cells ([3]; No drug): 732

O=C1OC2(c3ccc(O)cc3Oc3cc(O)ccc32)c2c(F)c(F)c(F)c(F)c21 [Compound 34, 4,5,6,7-tetrafluorofluorescein]
Abs. ([4]; absorption maximum): 508 nm | Em. ([4]; emission maximum): 527 nm | ε × 10^-3 ([4]; extinction coefficient, value is ε × 10^-3): 85.6 cm^-1 M^-1 | Quantum Yield ([4]; fluorescence quantum yield): 0.85 | photodecomposition [5]: 6.6% | protein labeling (degree of substitution) [1]: minimal protein labeling | pKa [6]: 6.1

O=C(O)c1c(F)c(F)c(F)c(F)c1C1c2ccc(O)cc2Oc2cc(O)ccc21 [Compound 84, 4,5,6,7-tetrafluorodihydrofluorescein]
soluble in water (Solubility in water): at least 2 mM | reaction with hydrogen peroxide alone [7]: stable toward reaction of hydrogen peroxide during the period of analysis | reaction with hydrogen peroxide alone ([7]; listed as TFDHF): no detectable fluorescence increase | fluorescence production on addition of HRP [8]: immediate production of bright yellow fluorescence

O=C1OC2(c3cc(F)c(O[C@@H]4O[C@H](CO)[C@H](O)[C@H](O)[C@H]4O)cc3Oc3cc(O[C@@H]4O[C@H](CO)[C@H](O)[C@H](O)[C@H]4O)c(F)cc32)c2ccccc21 [Compound 94, 2',7'-difluorofluorescein, bis-O-galactoside]
initial rate of fluorescence production relative to FDG [9]: 3.0 times

O=C1OC2(c3cc(F)c(OP(=O)(O)O)cc3Oc3cc(OP(=O)(O)O)c(F)cc32)c2ccccc21 [Compound 96, 2',7'-fluorofluorescein Diphosphate, Tetraammonium Salt]
change in signal relative to FDP [10]: ~6.5 times

O=C(O)CN(CC(=O)O)c1ccccc1OCCOc1cc(NC(=O)c2ccc3c(c2)C(=O)OC32c3cc(F)c(O)cc3Oc3cc(O)c(F)cc32)ccc1N(CC(=O)O)CC(=O)O [Compound 103]
fluorescence emission intensity increase ([11]; Ca^2+ from zero to 35 μM, emission approximately 530 nm): approximately 17 fold | Kd ([11]; Ca^2+, 20° C., read-out: dissociation constant): 169 nM

O=C(Nc1cc2cccnc2c2ncccc12)c1ccc2c(c1)C(=O)OC21c2cc(F)c(O)cc2Oc2cc(O)c(F)cc21 [Compound 106]
decrease in emission intensity at 523 nm [12]: 5 fold
